PMC6270976, “Pharmacokinetic Study in Mice of Galphimine-A, an Anxiolytic Compound from Galphimia glauca” (Molecules, 2014)
“Also recorded” adds a separate entry of the source. Like-named read-outs stand apart in the source and are kept apart here.

How the values were obtained:
[1] = Stability of G–A in mouse plasma under handling conditions; type: in vitro ADME; details: for Observed Concentration ± S.D.: n = 6
Protocol: (§1) The stability of G–A in mice plasma and brain was assessed by analyzing replicates (n = 6) of QC samples at concentrations of 0.8, 4.0 and 10 μg/mL for mice plasma and brain. The investigation covered expected conditions during all of the sample storage and process periods, which included the stability data from freeze/thaw, bench-top, autosampler and long–term stability test. For all stability studies, freshly prepared and stability testing QC samples were evaluated by using freshly prepared standard curves for the measurement. The concentrations obtained from all stability studies were compared with the freshly prepared QC samples, and the percentage concentration deviation was calculated. The analytes were considered stable in mouse plasma and brain when the concentration difference between the freshly prepared samples and the stability samples was less than 15%.

[2] = cited from earlier work
[3] = Stability of G–A in mouse brain tissue homogenate under handling conditions; type: in vitro ADME; details: for Observed Concentration ± S.D.: n = 6
Protocol: as §1

[4] = Brain tissue pharmacokinetics of G–A after a single oral dose in ICR mice (HPLC, PKSolver); type: in vivo
Protocol: Eighty-eight mice were randomly divided into 11 groups with eight individuals each. All animals were orally administered with 200 mg/kg of G–A dissolved in 5% β-cyclodextrin solution. Under ether-induced anesthesia, blood samples were obtained from the retroorbital sinus with heparinized cannula at different times (0, 5, 10, 15, 30, 60, 120, 240, 480, 720, and 1,440 min) after G–A administration. The volume of the blood samples was of 700 to 1000 microliters, which were collected in heparinized centrifuge microtubes, after the blood was centrifuged for 5 min at 1,720 × g.
Plasma samples were frozen at −70 °C, and lyophilized after. The obtained dry product was used to extract and measure the amount of G–A. After obtaining blood samples, all animals were perfused with isotonic saline solution (ISS) via cardiac puncture; the femoral vein was used to eliminate the perfusion liquid, until it appeared clear. Subsequently, the brain was removed. The brains were weighed fresh and frozen at −70 °C and then lyophilized. Once dry, the brains were weighed again to determine the volume of water contained in each brain. Dry tissue was ground in a mortar, and G–A was later extracted.
Dry pulverized samples (plasma and brain) were extracted with methanol (HPLC grade, Merck). The extracts were filtered with a 0.45 μm, 13 mm Teflon membrane (Millex®-LCR), and 20 μL of filtrate were injected into the HPLC equipment. Measurements were performed in a Waters 2695 HPLC, with diode array detector (Waters 2996) and the Empower Pro 1.0 software. A Chromolith Performance® RP-18e 100 × 4.6 mm (Merck KGaA Darmstadt, Germany) was used. The mobile phase consisted of a mixture of acetonitrile:water (55:45, 1 mL/min). G–A concentration was obtained by comparison with a pre-built calibration curve at λ = 220 nm.
To evaluate the suitability of the assay for pharmacokinetic studies, 200 mg/kg of G–A was orally administered to mice. Eight animals were used in each group different times (0, 5, 10, 15, 30, 60, 120, 240, 480, 720, and 1440 min). Pharmacokinetic calculations were performed using the observed data. All data were subsequently processed using PKSolver add-in program for Microsoft Excel written in Visual Basic for Applications. […]
The pharmacokinetic model selection either one or two-comparment, were used both the Akaike information criterion (AIC) and Schwarz criterion (SC). Using the criteria, one may select the model with which to reach a lower value of AIC or SC, which means that the chosen model is more parsimonious (less parameters required) and best fits the data (low error prediction).

[5] = plasma, 3 Freeze/thaw cycles (−70 °C), nominal 0.80 μg/mL
[6] = plasma, 3 Freeze/thaw cycles (−70 °C), nominal 4.00 μg/mL
[7] = plasma, 3 Freeze/thaw cycles (−70 °C), nominal 10.0 μg/mL
[8] = plasma, Autosampler stability (4 °C; 8 h), nominal 0.80 μg/mL
[9] = plasma, Autosampler stability (4 °C; 8 h), nominal 4.00 μg/mL
[10] = plasma, Long–term stability (−70 °C; 1 month), nominal 0.80 μg/mL
[11] = plasma, Long–term stability (−70 °C; 1 month), nominal 4.00 μg/mL
[12] = plasma, Long–term stability (−70 °C; 1 month), nominal 10.0 μg/mL
[13] = brain tissue, 3 Freeze/thaw cycles (−70 °C), nominal 0.80 μg/mL
[14] = brain tissue, 3 Freeze/thaw cycles (−70 °C), nominal 4.00 μg/mL
[15] = brain tissue, 3 Freeze/thaw cycles (−70 °C), nominal 10.0 μg/mL
[16] = brain tissue, Autosampler stability (4 °C; 8 h), nominal 0.80 μg/mL
[17] = brain tissue, Autosampler stability (4 °C; 8 h), nominal 4.00 μg/mL
[18] = brain tissue, Autosampler stability (4 °C; 8 h), nominal 10.0 μg/mL
[19] = brain tissue, Long–term stability (−70 °C; 1 month), nominal 0.80 μg/mL
[20] = brain tissue, Long–term stability (−70 °C; 1 month), nominal 4.00 μg/mL
[21] = brain tissue, Long–term stability (−70 °C; 1 month), nominal 10.0 μg/mL
[22] = brain tissue, oral 200 mg/kg, n = 8
[23] = mouse, brain tissue, oral 200 mg/kg, n = 8

## COC(=O)[C@@]12CC[C@]3(C)C([C@H](O)[C@H](O)[C@@]4([C@@H](C)O)COC(=O)C=C[C@H]43)[C@@]1(C)CC[C@@]1(C)CC=C(C)C[C@]12O (some centres unmarked) [G–A, galphimine-A]
[1]; plasma samples, 4 °C
  Time analyzable in the autosampler tray with acceptable precision and accuracy: over 8 h
[1]; plasma samples, −70 °C
  Long-term storage stability (time stable): over 1 month
[1]; [5]
  Accuracy Bias: −1.00%
  Observed Concentration ± S.D.: 0.79 ± 0.08 µg/mL
[1]; [6]
  Accuracy Bias: 0.25%
  Observed Concentration ± S.D.: 4.01 ± 0.14 µg/mL
[1]; [7]
  Accuracy Bias: −0.70%
  Observed Concentration ± S.D.: 9.93 ± 0.67 µg/mL
[1]; [8]
  Accuracy Bias: 3.75%
  Observed Concentration ± S.D.: 0.83 ± 0.05 µg/mL
[1]; [9]
  Accuracy Bias: −1.75%
  Observed Concentration ± S.D.: 3.93 ± 0.43 µg/mL
[1]; plasma, Autosampler stability (4 °C; 8 h), nominal 10.0 μg/mL
  Observed Concentration ± S.D.: 10.10 ± 0.85 µg/mL
[1]; [10]
  Accuracy Bias: −3.00%
  Observed Concentration ± S.D.: 0.77 ± 0.06 µg/mL
[1]; [11]
  Accuracy Bias: 6.50%
  Observed Concentration ± S.D.: 4.26 ± 0.31 µg/mL
[1]; [12]
  Accuracy Bias: −5.70%
  Observed Concentration ± S.D.: 9.43 ± 0.83 µg/mL
[1]; plasma, three cycles, stored at −70 °C and thawed to room temperature
  Freeze/thaw stability: stable
[2]; 15 mg/kg dose administered intraperitoneally
  Anxiolytic effect: anxiolytic effects
[2]; among the galphimines
  Anxiolytic activity: most active; also recorded: highest anxiolytic activity
[3]; brain tissue samples, 4 °C
  Time analyzable in the autosampler tray with acceptable precision and accuracy: over 8 h
[3]; brain tissue samples, −70 °C
  Long-term storage stability (time stable): over 1 month
[3]; [13]
  Accuracy Bias: 3.75%
  Observed Concentration ± S.D.: 0.83 ± 0.08 µg/mL
[3]; [14]
  Accuracy Bias: 9.00%
  Observed Concentration ± S.D.: 4.36 ± 0.34 µg/mL
[3]; [15]
  Accuracy Bias: 3.60%
  Observed Concentration ± S.D.: 10.36 ± 0.52 µg/mL
[3]; [16]
  Accuracy Bias: 8.75%
  Observed Concentration ± S.D.: 0.87 ± 0.11 µg/mL
[3]; [17]
  Accuracy Bias: −10.0%
  Observed Concentration ± S.D.: 3.60 ± 0.33 µg/mL
[3]; [18]
  Accuracy Bias: −1.70%
  Observed Concentration ± S.D.: 9.83 ± 0.43 µg/mL
[3]; [19]
  Accuracy Bias: −10.00%
  Observed Concentration ± S.D.: 0.72 ± 0.10 µg/mL
[3]; [20]
  Accuracy Bias: −6.75%
  Observed Concentration ± S.D.: 3.73 ± 0.41 µg/mL
[3]; [21]
  Accuracy Bias: 4.30%
  Observed Concentration ± S.D.: 10.43 ± 0.98 µg/mL
[3]; brain tissue, three cycles, stored at −70 °C and thawed to room temperature
  Freeze/thaw stability: stable
[4]; 1440 min (24 h) after single oral 200 mg/kg, mean ± S.E.M., n = 8, 200 mg/kg
  G–A Concentration Brain: 0.32 ± 0.14 µg/mL
[4]; ICR, mouse, brain, po, 200 mg/kg, brain tissue, oral 200 mg/kg, n = 8, read-out: Tmax (converted)
  Tmax: 1.36 h
[4]; [22]
  A: 2.98 µg/mL
  V/F: 68.16 (mg/kg)/(μg/mL)
  k10: 0.0008 min⁻¹
  ka: 0.051 min⁻¹
[4]; brain tissue, oral 200 mg/kg, n = 8, 200 mg/kg
  Tmax: 1.36 h
[4]; [23]
  AUC(0-inf): 58.7 µg·h/mL
  CL/F: 3.42 L/h/kg
  Cmax: 2.74 µg/mL
  MRT: 20.3 h
[4]; mouse, brain tissue, oral 200 mg/kg, n = 8, read-out: AUC0-1440 min (converted)
  AUC(0-t): 31.9 µg·h/mL
[4]; mouse, brain, 5 min after single oral 200 mg/kg, mean ± S.E.M., n = 8
  concentration at 5 min: 0 µg/mL
[4]; mouse, brain, 10 min after single oral 200 mg/kg, mean ± S.E.M., n = 8
  concentration at 10 min: 0.88 ± 0.33 µg/mL
[4]; mouse, brain, 15 min after single oral 200 mg/kg, mean ± S.E.M., n = 8
  concentration at 15 min: 1.48 ± 0.58 µg/mL
[4]; mouse, brain, 30 min after single oral 200 mg/kg, mean ± S.E.M., n = 8
  concentration at 30 min: 3.44 ± 0.5 µg/mL
[4]; mouse, brain, 60 min after single oral 200 mg/kg, mean ± S.E.M., n = 8
  concentration at 60 min: 3.01 ± 0.59 µg/mL
[4]; mouse, brain, 120 min after single oral 200 mg/kg, mean ± S.E.M., n = 8
  concentration at 120 min: 2.5 ± 0.58 µg/mL
[4]; mouse, brain, 240 min after single oral 200 mg/kg, mean ± S.E.M., n = 8
  concentration at 240 min: 2.18 ± 0.48 µg/mL
[4]; mouse, brain, 480 min after single oral 200 mg/kg, mean ± S.E.M., n = 8
  concentration at 480 min: 1.78 ± 0.37 µg/mL
[4]; mouse, brain, 720 min after single oral 200 mg/kg, mean ± S.E.M., n = 8
  concentration at 720 min: 0.55 ± 0.18 µg/mL
[4]; mouse, brain, 1440 min (24 h) after single oral 200 mg/kg, mean ± S.E.M., n = 8
  concentration at 1440 min: 0.32 µg/mL
